System: 966289-007-R4-J1-PDC complex spheroid viability
Experiment: Anticancer human tumor 966289-007-R4-J1-PDC patient-derived pancreatic adenocarcinoma cell line growth inhibition [RAS]
Conditions: for IC50: curve of first compound; for viability, T/C: stronger effect = lower value
Summary of the method: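 Tumour cells grown as complex spheroids with HUVEC endothelial cells and mesenchymal stem cells, treated with RAS pathway inhibitor combinations. Each agent spans half-log steps from near clinical Cmax, or 10 microM where Cmax is unknown.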

[1] = second compound 0.000949 µM, first compound 0.0316 µM
[2] = second compound 0.000949 µM, first compound 0.1 µM
[3] = second compound 0.000949 µM, first compound 0.316 µM
[4] = second compound 0.000949 µM, first compound 1 µM
[5] = second compound 0.000949 µM, first compound 3.16 µM
[6] = second compound 0.000949 µM, first compound 10 µM
[7] = second compound 0.003 µM, first compound 0.0316 µM
[8] = second compound 0.003 µM, first compound 0.1 µM
[9] = second compound 0.003 µM, first compound 0.316 µM
[10] = second compound 0.003 µM, first compound 1 µM
[11] = second compound 0.003 µM, first compound 3.16 µM
[12] = second compound 0.003 µM, first compound 10 µM
[13] = second compound 0.00949 µM, first compound 0.0316 µM
[14] = second compound 0.00949 µM, first compound 0.1 µM
[15] = second compound 0.00949 µM, first compound 0.316 µM
[16] = second compound 0.00949 µM, first compound 1 µM
[17] = second compound 0.00949 µM, first compound 3.16 µM
[18] = second compound 0.00949 µM, first compound 10 µM
[19] = second compound 0.03 µM, first compound 0.0316 µM
[20] = second compound 0.03 µM, first compound 0.1 µM
[21] = second compound 0.03 µM, first compound 0.316 µM
[22] = second compound 0.03 µM, first compound 1 µM
[23] = second compound 0.03 µM, first compound 3.16 µM
[24] = second compound 0.03 µM, first compound 10 µM
[25] = second compound 0.0949 µM, first compound 0.0316 µM
[26] = second compound 0.0949 µM, first compound 0.1 µM
[27] = second compound 0.0949 µM, first compound 0.316 µM
[28] = second compound 0.0949 µM, first compound 1 µM
[29] = second compound 0.0949 µM, first compound 3.16 µM
[30] = second compound 0.0949 µM, first compound 10 µM
[31] = second compound 0.3 µM, first compound 0.0316 µM
[32] = second compound 0.3 µM, first compound 0.1 µM
[33] = second compound 0.3 µM, first compound 0.316 µM
[34] = second compound 0.3 µM, first compound 1 µM
[35] = second compound 0.3 µM, first compound 3.16 µM
[36] = second compound 0.3 µM, first compound 10 µM
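Further: spheroids exposed to agents for one week before readout.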
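Wherever viability, T/C is given: percent viability relative to DMSO vehicle control wells as 100%.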

`CC(=O)OC12COC1CC(O)C1(C)C(=O)C(O)C3=C(C)C(OC(=O)C(O)C(NC(=O)OC(C)(C)C)c4ccccc4)CC(O)(C(OC(=O)c4ccccc4)C21)C3(C)C` (stereo unspecified) + CCn1c(-c2cc(N3CCN(C)CC3)cnc2C(C)OC)c2c3cc(ccc31)-c1csc(n1)CC(NC(=O)C1CC1C)C(=O)N1CCCC(N1)C(=O)OCC(C)(C)C2 was tested, and the IC50 (second compound 0.000949 µM) was < 0.0316 µM, the IC50 (second compound 0.003 µM) was < 0.0316 µM and the IC50 (second compound 0.00949 µM) was < 0.0316 µM. For the same compound, the IC50 (second compound 0.03 µM) was < 0.0316 µM, the IC50 (second compound 0.0949 µM) was < 0.0316 µM and the IC50 (second compound 0.3 µM) was < 0.0316 µM. For the same compound, the viability, T/C [1] was 6.12%, the viability, T/C [2] was 13.9% and the viability, T/C [3] was 13.5%. For the same compound, the viability, T/C [4] was 21.5%, the viability, T/C [5] was 29.3% and the viability, T/C [6] was 55%. For the same compound, the viability, T/C [7] was 6.11%, the viability, T/C [8] was 12.1% and the viability, T/C [9] was 10.9%. For the same compound, the viability, T/C [10] was 19.1%, the viability, T/C [11] was 35.8% and the viability, T/C [12] was 60.8%. The viability, T/C [13] was 6.07%, the viability, T/C [14] was 11.1% and the viability, T/C [15] was 13.5%. The viability, T/C [16] was 16.5%, the viability, T/C [17] was 42.2% and the viability, T/C [18] was 54.5%. The viability, T/C [19] was 7.27%, the viability, T/C [20] was 8.94% and the viability, T/C [21] was 16.7%. It also gave a viability, T/C [22] of 20.9%, a viability, T/C [23] of 40.2% and a viability, T/C [24] of 60.1%. It also gave a viability, T/C [25] of 5.65%, a viability, T/C [26] of 11.1% and a viability, T/C [27] of 13.4%. It also gave a viability, T/C [28] of 19.3%, a viability, T/C [29] of 51.7% and a viability, T/C [30] of 59.8%. The viability, T/C [31] was 7.9%, the viability, T/C [32] was 14.3% and the viability, T/C [33] was 18.4%. For the same compound, the viability, T/C [34] was 23.5%, the viability, T/C [35] was 41.7% and the viability, T/C [36] was 56%.

With `CC(Nc1ccc2c(c1)OCCn1cc(N3C(=O)OCC3C(F)F)nc1-2)C(N)=O` (stereo unspecified) + CCn1c(-c2cccnc2C(C)OC)c2c3cc(ccc31)N1CCOC(CC(NC(=O)C(C(C)C)N(C)C(=O)C3(F)CCN(C(=O)C#CC(C)(C)N(C)C)CC3)C(=O)N3CCCC(N3)C(=O)OCC(C)(C)C2)C1 the IC50 (second compound 0.000949 µM) was > 10 µM, the IC50 (second compound 0.003 µM) was > 10 µM and the IC50 (second compound 0.00949 µM) was > 10 µM. For the same compound, the IC50 (second compound 0.03 µM) was > 10 µM, the IC50 (second compound 0.0949 µM) was > 10 µM and the IC50 (second compound 0.3 µM) was > 10 µM. It also gave a viability, T/C [1] of 97.2%, a viability, T/C [2] of 114% and a viability, T/C [3] of 121%. It also gave a viability, T/C [4] of 77.1%, a viability, T/C [5] of 90.5% and a viability, T/C [6] of 74.9%. For the same compound, the viability, T/C [7] was 93.7%, the viability, T/C [8] was 99.9% and the viability, T/C [9] was 111%. The viability, T/C [10] was 83.4%, the viability, T/C [11] was 78.2% and the viability, T/C [12] was 86.1%. The viability, T/C [13] was 73.8%, the viability, T/C [14] was 105% and the viability, T/C [15] was 111%. It also gave a viability, T/C [16] of 92.6%, a viability, T/C [17] of 103% and a viability, T/C [18] of 77.3%. It also gave a viability, T/C [19] of 60.7%, a viability, T/C [20] of 94.2% and a viability, T/C [21] of 106%. It also gave a viability, T/C [22] of 82.3%, a viability, T/C [23] of 114% and a viability, T/C [24] of 88.5%. The viability, T/C [25] was 69.8%, the viability, T/C [26] was 91.7% and the viability, T/C [27] was 105%. It also gave a viability, T/C [28] of 108%, a viability, T/C [29] of 105% and a viability, T/C [30] of 82%. For the same compound, the viability, T/C [31] was 101%, the viability, T/C [32] was 94.8% and the viability, T/C [33] was 124%. It also gave a viability, T/C [34] of 97%, a viability, T/C [35] of 135% and a viability, T/C [36] of 73.8%.

For `C[C@@H](NC(=O)c1ncnc(N)c1Cl)c1ncc(C(=O)Nc2cc(C(F)(F)F)c(Cl)cn2)s1` + C=CC(=O)N1CCN(c2nc(OCC3CCCN3C)nc3c(F)c(-c4nc(N)cc(C)c4C(F)(F)F)c(Cl)cc23)C(C)C1, the IC50 (second compound 0.00316 µM) was > 10 µM, the IC50 (second compound 0.01 µM) was > 10 µM and the IC50 (second compound 0.0316 µM) was > 10 µM. The IC50 (second compound 0.1 µM) was > 10 µM, the IC50 (second compound 0.316 µM) was > 10 µM and the IC50 (second compound 1 µM) was > 10 µM. It also gave a viability, T/C (second compound 0.00316 µM, first compound 0.0316 µM) of 123%, a viability, T/C (second compound 0.00316 µM, first compound 0.1 µM) of 117% and a viability, T/C (second compound 0.00316 µM, first compound 0.316 µM) of 115%. The viability, T/C (second compound 0.00316 µM, first compound 1 µM) was 119%, the viability, T/C (second compound 0.00316 µM, first compound 3.16 µM) was 128% and the viability, T/C (second compound 0.00316 µM, first compound 10 µM) was 76.2%. For the same compound, the viability, T/C (second compound 0.01 µM, first compound 0.0316 µM) was 112%, the viability, T/C (second compound 0.01 µM, first compound 0.1 µM) was 116% and the viability, T/C (second compound 0.01 µM, first compound 0.316 µM) was 122%. It also gave a viability, T/C (second compound 0.01 µM, first compound 1 µM) of 109%, a viability, T/C (second compound 0.01 µM, first compound 3.16 µM) of 119% and a viability, T/C (second compound 0.01 µM, first compound 10 µM) of 100%. For the same compound, the viability, T/C (second compound 0.0316 µM, first compound 0.0316 µM) was 120%, the viability, T/C (second compound 0.0316 µM, first compound 0.1 µM) was 113% and the viability, T/C (second compound 0.0316 µM, first compound 0.316 µM) was 118%. The viability, T/C (second compound 0.0316 µM, first compound 1 µM) was 128%, the viability, T/C (second compound 0.0316 µM, first compound 3.16 µM) was 127% and the viability, T/C (second compound 0.0316 µM, first compound 10 µM) was 86.2%. It also gave a viability, T/C (second compound 0.1 µM, first compound 0.0316 µM) of 116%, a viability, T/C (second compound 0.1 µM, first compound 0.1 µM) of 119% and a viability, T/C (second compound 0.1 µM, first compound 0.316 µM) of 123%. The viability, T/C (second compound 0.1 µM, first compound 1 µM) was 123%, the viability, T/C (second compound 0.1 µM, first compound 3.16 µM) was 116% and the viability, T/C (second compound 0.1 µM, first compound 10 µM) was 111%. For the same compound, the viability, T/C (second compound 0.316 µM, first compound 0.0316 µM) was 115%, the viability, T/C (second compound 0.316 µM, first compound 0.1 µM) was 107% and the viability, T/C (second compound 0.316 µM, first compound 0.316 µM) was 130%. It also gave a viability, T/C (second compound 0.316 µM, first compound 1 µM) of 125%, a viability, T/C (second compound 0.316 µM, first compound 3.16 µM) of 116% and a viability, T/C (second compound 0.316 µM, first compound 10 µM) of 118%. The viability, T/C (second compound 1 µM, first compound 0.0316 µM) was 101%, the viability, T/C (second compound 1 µM, first compound 0.1 µM) was 103% and the viability, T/C (second compound 1 µM, first compound 0.316 µM) was 120%. The viability, T/C (second compound 1 µM, first compound 1 µM) was 128%, the viability, T/C (second compound 1 µM, first compound 3.16 µM) was 134% and the viability, T/C (second compound 1 µM, first compound 10 µM) was 94.1%.
